What was measured:
Type in all cases: cell-based
[1] = tested on: Sh-IR; settings: isomer that blocks Sh-IR
[2] = tested on: voltage-gated Ca2+ channels expressed in GH3 cells; assay: Photosensitization of voltage-gated Ca2+ channels expressed in GH3 cells
[3] = tested on: endogenous K+ channels in dissociated hippocampal neurons; settings: 20 μM extracellular treatment, Iss at +40 mV, n = 10
[4] = tested on: voltage-gated Na+ channels expressed in GH3 cells; assay: Photosensitization of voltage-gated Na+ channels expressed in GH3 cells

Molecule | Active Isomer [1] | photosensitization of voltage-gated Ca2+ channels [2] | % of Iss blocked (380 vs 500 nm) [3] | photosensitization of voltage-gated Na+ channels [4]
C=CC(=O)Nc1ccc(N=Nc2ccc(NC(=O)C[N+](CC)(CC)CC)cc2)cc1 [Compound 1] | trans |  |  | 
CC[N+](CC)(CC)CC(=O)Nc1ccc(/N=N/c2ccc(NC(=O)c3ccccc3)cc2)cc1 [Compound 7, Benzoyl-Azo-QA] | trans | did not photosensitize | 35.5% ± 4.7 | did not photosensitize
Propyl-Azo-QA [Compound 10] | preferentially blocks in the cis form |  |  | 

From publication PMC4040390 (Angewandte Chemie (International ed. in English), 2009)
